Patent publication US20030032774A1, “Novel opioid peptides for the treatment of pain” (priority 1994, published 2003)
Like-named read-outs stand apart in the source and are kept apart here. Square brackets hold non-standard residues; d marks the D form. Peptide text beside a SMILES is read from it. Phe(4-NO2) = N[C@@H](Cc1ccc([N+](=O)[O-])cc1)C(=O)O; Phe(4-F) = N[C@@H](Cc1ccc(F)cc1)C(=O)O; 1Nal = N[C@@H](Cc1cccc2ccccc12)C(=O)O; 2Nal = N[C@@H](Cc1ccc2ccccc2c1)C(=O)O; Dmt = Cc1cc(O)cc(C)c1C[C@H](N)C(=O)O; dNva = CCC[C@@H](N)C(=O)O

Columns and labels:
[1] = tested on: hot-plate response in mice; settings: in vivo; for central analgesic effect in the mouse hot plate test: 100 mg/kg; for Hot Plate: sc
[2] = tested on: PBQ induced writhing in mice; assay: PBQ (phenylquinone)-induced writhing assay; format: in vivo, mouse; settings: for Writhing ED50: Table 2, mouse; for ED50(PBQ): mouse s.c.
Procedure: The test was performed on CD #1 male mice weighing between 18 and 22 g. Mice were weighed, marked and then injected, by the intraperitoneal route, with 0.3 ml/20 g by weight of a solution of phenylquinone at 0.02%. The contortions which appeared during a 15 minute time period following the injection were counted. The phenylquinone was injected at time intervals of 5, 20 or 60 minutes after administration of the compound (or medium, or standard) by subcutaneous route. It was injected at time intervals of 60 minutes after the administration of the compound (or medium, or standard) by oral route;
The 0.02% phenylquinone solution was prepared as follows: 20 mg of phenylquinone was dissolved in 5 ml ethanol 90% (Sigma). The dissolved phenylquinone was slowly added to 95 ml of distilled water continuously shaken and preheated (not boiled). The phenylquinone solution was, at all times protected from light and a new solution was prepared every day for the test. Each group usually contained 10 mice. If an antagonist, such as naloxone, was used, it was administered 20 minutes before the compound (or the medium, or the standard) by the intraperitoneal route.
Writhing assays were performed on CD#1 male mice weighing between […]. Assays were carried out as described in Example 3 and results are summarized below in Table 2.

μ receptor = target: T1, μ receptor (Rattus norvegicus, UniProt P33535); assay: Radioligand binding assay, μ opioid receptor ((3H)-DAMGO, brain membranes); settings: for Binding Assay Kiδ Kiμ: selectivity ratio
T1 construct: the brains (minus the cerebellum) were removed, placed in ice-cold saline solution, and then homogenized; from tissue; host or cells: rat brain (minus cerebellum) membranes
T1 sequence (P33535 whole entry): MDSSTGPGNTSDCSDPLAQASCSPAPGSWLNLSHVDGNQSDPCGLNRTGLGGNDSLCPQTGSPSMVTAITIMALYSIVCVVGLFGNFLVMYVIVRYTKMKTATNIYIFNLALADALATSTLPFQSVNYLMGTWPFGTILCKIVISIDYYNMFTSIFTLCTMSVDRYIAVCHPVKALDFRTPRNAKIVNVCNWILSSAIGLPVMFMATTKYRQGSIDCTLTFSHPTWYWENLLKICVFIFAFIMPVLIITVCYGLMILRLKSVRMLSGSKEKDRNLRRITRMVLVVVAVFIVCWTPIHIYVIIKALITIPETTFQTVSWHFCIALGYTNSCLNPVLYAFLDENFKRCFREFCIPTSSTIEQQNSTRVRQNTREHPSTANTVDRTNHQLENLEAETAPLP
Procedure: (§1) PBQ (phenyl-ρ-benzoquinone) induced writhing in mice is an assessment of both central and peripheral analgesia (see Sigmund, et al., Proc. Soc. Exp. Biol. Med. 95:729 (1957)). Central analgesia is determined by the inhibition of a hot-plate response in mice (see, Wolfe, et al., J. Pharmacol. Exp. Ther. 80:300 (1944)). Assays measuring opioid receptor binding affinities for μ and δ receptors as well as the GPI assay were determined through experimental protocol set out in Schiller et al. (Biophys. Res. Commun. 85:1322 (1975)). The references by Sigmund, et al., Wolfe, et al., and Schiller, et al. are each hereby incorporated by reference.
(§2) Male Sprague-Dawley rats weighing between 350-450 g were sacrificed by inhalation of CO2. The rats were decapitated and the brains (minus the cerebellum) were removed, placed in ice-cold saline solution, and then homogenized in ice-cold 50 mM Tris buffer pH 7.4 (10 ml/brain). Membranes were centrifuged at 14000 rpm for 30 min. at 4° C. The pellets were re-suspended in approximately 6 ml/brain of ice-cold Tris buffer 50 mM pH 7.4 and stored at −78° C. until ready for use. Protein quantification of the brain homogenate was conducted according to protein assay kit purchased (Bio-Rad).
(§3) (^3H)-DAMGO and (^3H)-DAGLE were used as radioligands for the μ and δ receptors, respectively. Radioligand 50 μl, membranes 100 μl, and serially diluted test compound were incubated for 1 hr at 22° C. Nonspecific binding was determined using a 500 fold excess of unlabeled ligand in the presence of tracer and membranes. Free ligand was separated from bound by filtration through Whatman GF/B paper (presoaked in polyethylenimine 1% aqueous solution) and rinsing with ice-cold 50 mM Tris pH 7.4 using a Brandel cell harvester. The filters were dried and radioactivity was counted in a 24 well microplate in the presence of 500 μl scintillant per well. Radioactivity was measured using a Wallace 1450 Microbeta counter. Ki's for the various compounds were determined from the IC50 according to the Cheng and Prusoff equation.

δ receptor = δ receptor (Rattus norvegicus, UniProt P33533); assay: biochemical
Chain of δ receptor (P33533 whole entry): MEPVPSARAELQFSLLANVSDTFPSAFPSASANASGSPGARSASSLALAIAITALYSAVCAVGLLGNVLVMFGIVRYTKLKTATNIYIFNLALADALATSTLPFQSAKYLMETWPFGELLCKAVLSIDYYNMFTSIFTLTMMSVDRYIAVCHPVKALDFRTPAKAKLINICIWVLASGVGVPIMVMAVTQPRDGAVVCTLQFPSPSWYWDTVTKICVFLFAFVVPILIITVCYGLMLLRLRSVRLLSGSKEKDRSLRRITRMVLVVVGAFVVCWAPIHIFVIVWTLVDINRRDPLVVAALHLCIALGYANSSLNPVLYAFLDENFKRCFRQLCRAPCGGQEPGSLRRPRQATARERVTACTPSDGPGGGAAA
Procedure: as §1, §2, §3

mice = assay: Lethal effects / safety in mice; settings: 1-5 mg kg−1 i.v. bolus dose
μ receptors = μ receptors (Cavia porcellus, UniProt P97266); assay: Guinea Pig Ileum (GPI) assay, longitudinal muscle preparation
Chain of μ receptors (P97266 whole entry, looked up): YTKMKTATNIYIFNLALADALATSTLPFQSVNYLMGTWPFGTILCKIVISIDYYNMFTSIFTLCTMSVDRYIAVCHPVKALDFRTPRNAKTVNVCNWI
Procedure: The activity of the peptide compounds on μ receptors was determined using the Guinea Pig Ileum (GPI) assay (longitudinal muscle preparation) according to the procedures described in Schiller et al., Biophys. Res. Commun. 85:1322 (1975).

Row | Compound | Hot Plate ([1]; mouse) [mg/kg] | Writhing ED50 [2] [mg/kg] | ED50(PBQ) ([2]; 20 min post administration) [mg/kg] | Ki (μ receptor; Ki^μ, Table 1) [nM] | IC50 (μ receptors; GPI(IC50), Table 1) [nM] | other results
1 | N=C(N)NCCC[C@@H](NC(=O)[C@@H](N)Cc1ccc(O)cc1)C(=O)N[C@@H](Cc1ccccc1)C(=O)N[C@@H](Cc1ccccc1)C(N)=O [BCH2687, H-Tyr-D-Arg-Phe-Phe-NH2] (H-Y[dR]FF-NH2) | >100 | 0.5 | – | – | – | central analgesic effect in the mouse hot plate test [1]: No central analgesic effect was observed; reaction time in the hot plate test ([1]; mouse): approximately 8 seconds
2 | NC(=O)[C@H](Cc1ccccc1)NC(=O)[C@H](Cc1ccccc1)NC(=O)[C@@H](CS)NC(=O)[C@@H](N)Cc1ccc(O)cc1 [BCH2690, H-Tyr-D-Cys-Phe-Phe-NH2] (H-Y[dC]FF-NH2) | >100 | – | 6.2 | – | – | –
3 | N=C(N)NCCC[C@@H](NC(=O)[C@@H](N)Cc1ccc(O)cc1)C(=O)N[C@@H](Cc1ccc(F)cc1)C(=O)N[C@@H](Cc1ccc(F)cc1)C(N)=O [Compound #2B, H-Tyr-D-Arg-Phe(pF)-Phe(pF)-NH2] (H-Y[dR][Phe(4-F)][Phe(4-F)]-NH2) | – | 0.3 | – | – | – | Ki (μ receptor; Binding Assay Kiμ, Table 2): 0.22 nM; Ki (δ receptor): > 1000 nM
4 | C[C@@H](NC(=O)[C@@H](N)Cc1ccc(O)cc1)C(=O)N[C@@H](Cc1ccccc1)C(=O)N[C@@H](Cc1ccccc1)C(N)=O [BCH1774, H-Tyr-D-Ala-Phe-Phe-NH2] (H-Y[dA]FF-NH2) | >100 | 1.4 | 1.4 | – | – | lethal effects upon mice (mice): exhibited lethal effects; Ki (μ receptor; Table 1, read-out: Ki^μ): 1.53 nM; Ki (μ receptor; Table 2, read-out: Binding Assay Kiμ): 1.53 nM; Binding Assay Kiδ Kiμ (μ receptor; Table 2): 409; duration of analgesic effect in writhing assay ([2]; 20 mg/kg s.c. BCH1774 vs 30 mg/kg s.c. BCH2463, FIG. 3): lasted longer than for BCH2463; Ki (δ receptor; read-out: Binding Assay Kiδ, Table 2): 626 nM; IC50 (μ receptors): 3 nM
5 | C[C@@H](NC(=O)[C@@H](N)Cc1ccc(O)cc1)C(=O)N[C@@H](Cc1ccc([N+](=O)[O-])cc1)C(=O)N[C@@H](Cc1ccc([N+](=O)[O-])cc1)C(N)=O [BCH1777, H-Tyr-D-Ala-Phe(4-NO2)-Phe(4-NO2)—NH2] (H-Y[dA][Phe(4-NO2)][Phe(4-NO2)]-NH2) | – | – | >20 | 0.826 | 6 | –
6 | C[C@@H](NC(=O)[C@@H](N)Cc1ccc(O)cc1)C(=O)N[C@@H](Cc1ccccc1)C(=O)N[C@@H](Cc1cccc2ccccc12)C(N)=O [BCH1782, H-Tyr-D-Ala-Phe-1′-Nal-NH2] (H-Y[dA]F[1Nal]-NH2) | – | – | >20 | 0.981 | 2 | –
7 | C[C@@H](NC(=O)[C@@H](N)Cc1ccc(O)cc1)C(=O)N[C@@H](Cc1ccc(F)cc1)C(=O)N[C@@H](Cc1ccc(F)cc1)C(N)=O [Compound #1B, H-Tyr-D-Ala-Phe(pF)-Phe(pF)-NH2] (H-Y[dA][Phe(4-F)][Phe(4-F)]-NH2) | – | 0.2 | – | – | – | Ki (μ receptor; Binding Assay Kiμ, Table 2): 0.2 nM; Binding Assay Kiδ Kiμ (μ receptor; Table 2): 998; Ki (δ receptor): 200 nM; IC50 (μ receptors; CPI IC50, Table 2): 0.12 nM
8 | C[C@@H](NC(=O)[C@@H](N)Cc1ccc(O)cc1)C(=O)N[C@@H](Cc1ccccc1)C(=O)N[C@@H](Cc1ccc([N+](=O)[O-])cc1)C(N)=O [BCH1776, H-Tyr-D-Ala-Phe-Phe(4-NO2)—NH2] (H-Y[dA]F[Phe(4-NO2)]-NH2) | – | – | 4 | 0.509 | 8 | –
9 | C[C@@H](NC(=O)[C@@H](N)Cc1ccc(O)cc1)C(=O)N[C@@H](Cc1ccccc1)C(=O)N[C@@H](Cc1ccc2ccccc2c1)C(N)=O [BCH757, H-Tyr-D-Ala-Phe-2′-Nal-NH2] (H-Y[dA]F[2Nal]-NH2) | – | – | – | 0.655 | 2 | ED50(PBQ) ([2]; 5 min.): 1.1 (5 min.) mg/kg
10 | N=C(N)NCCC[C@@H](NC(=O)[C@@H](N)Cc1ccc(O)cc1)C(=O)N[C@@H](Cc1ccc(F)cc1)C(=O)N[C@@H](Cc1ccccc1)C(N)=O [Compound #2C, H-Tyr-D-Arg-Phe(pF)-Phe-NH2] (H-Y[dR][Phe(4-F)]F-NH2) | – | 0.3 | – | – | – | Ki (μ receptor; Binding Assay Kiμ, Table 2): 0.57 nM; Binding Assay Kiδ Kiμ (μ receptor; Table 2): 1671; Ki (δ receptor): 952 nM; IC50 (μ receptors; CPI IC50, Table 2): 1.52 nM
11 | CCC[C@@H](NC(=O)[C@@H](N)Cc1ccc(O)cc1)C(=O)N[C@@H](Cc1ccccc1)C(=O)N[C@@H](Cc1ccccc1)C(N)=O [BCH2462, H-Tyr-D-Nva-Phe-Phe-NH2] (H-Y[dNva]FF-NH2) | >100 | – | 2.7 | – | – | lethal effects upon mice (mice): exhibited lethal effects; central analgesic effect in the mouse hot plate test [1]: No central analgesic effect was observed; reaction time in the hot plate test ([1]; mouse): approximately 8 seconds
12 | C[C@@H](NC(=O)[C@@H](N)Cc1ccc(O)cc1)C(=O)N[C@@H](Cc1ccccc1)C(=O)N[C@@H](Cc1c[nH]c2ccccc12)C(N)=O [BCH1785, H-Tyr-D-Ala-Phe-Trp-NH2] (H-Y[dA]FW-NH2) | – | – | >20 | 2.21 | 16 | –
13 | Cc1cc(O)cc(C)c1C[C@H](N)C(=O)N[C@H](CO)C(=O)N[C@@H](Cc1ccccc1)C(=O)N[C@@H](Cc1ccccc1)C(N)=O [BCH2813, H-Dmt-D-Ser-Phe-Phe-NH2] (H-[Dmt][dS]FF-NH2) | – | – | 0.15 | – | – | dose at which found to act centrally in the hot plate test ([1]; mouse): about 40 mg/kg
14 | C[C@@H](NC(=O)[C@@H](N)Cc1ccc(O)cc1)C(=O)N[C@@H](Cc1ccc(F)cc1)C(=O)N[C@@H](Cc1ccccc1)C(N)=O [Compound #1C, H-Tyr-D-Ala-Phe(pF)-Phe-NH2] (H-Y[dA][Phe(4-F)]F-NH2) | – | 0.5 | – | – | – | Ki (μ receptor; Binding Assay Kiμ, Table 2): 0.36 nM; Binding Assay Kiδ Kiμ (μ receptor; Table 2): 559; Ki (δ receptor): 201 nM
15 | NC(=O)[C@H](Cc1ccccc1)NC(=O)[C@H](Cc1ccccc1)NC(=O)[C@@H](Cc1ccccc1)NC(=O)[C@@H](N)Cc1ccc(O)cc1 [BCH753, H-Tyr-D-Phe-Phe-Phe-NH2] (H-Y[dF]FF-NH2) | – | – | >20 | 3.63 | 247 | –
16 | H-Y[dS]FF-NH2 [BCH2463] | >100 | – | 0.5 | – | – | central analgesic effect in the mouse hot plate test [1]: No central analgesic effect was observed; reaction time in the hot plate test ([1]; mouse): about 9 seconds
